Paper PMC8009421, “Characterization of a broadly specific cadaverine N-hydroxylase involved in desferrioxamine B biosynthesis in Streptomyces sviceus” (PLoS ONE, 2021)
Each block holds one compound with its values, some of them ahead of it.

What was measured:
[1] = molecular target: T1, SsDesB (without N-terminal hexahistidine tag) (Streptomyces sviceus, UniProt B5HNG5); assay: X-ray crystal structure, […] Å; settings: holoenzyme; FAD-binding site; also in 6XBB
T1 construct: gene SSEG_08523; T2-V425, N-terminal His6 cut off with TEV protease (ENLYFQ/T); codon-optimized gene, E. coli Rosetta2(DE3); homotetramer

[2] = molecular target: T1, SsDesB (without N-terminal hexahistidine tag); assay: Csaky iodine oxidation product formation assay; format: biochemical; settings: substrate inhibition constant (Haldane), 50 μM FAD, pH 8.0, 25°C
Excerpt: (§1) Csaky iodine oxidation product formation assay on SsDesB (without N-terminal hexahistidine tag)

[3] = molecular target: T1, SsDesB (without N-terminal hexahistidine tag); assay: X-ray crystal structure, […] Å; settings: ternary complex with FAD; NADPH-binding site
[4] = molecular target: T2, SsDesB with N-terminal hexahistidine tag (Streptomyces sviceus, UniProt B5HNG5); assay: NADH oxidation at […] nm; format: biochemical; settings: substrate inhibition constant (Haldane); 0.7 mM NADH, 50 μM FAD, 25°C
T2 construct: gene SSEG_08523

[5] = system: NC(=O)C1=CN([C@@H]2O[C@H](COP(=O)(O)OP(=O)(O)OC[C@H]3O[C@@H](n4cnc5c(N)ncnc54)[C@H](O)[C@@H]3O)[C@@H](O)[C@H]2O)C=CC1; assay: Csaky iodine oxidation product formation assay; format: biochemical, Streptomyces sviceus; settings: 10 mM cadaverine, 50 μM FAD, pH 8.0, 25°C, Haldane fit
Excerpt: as §1

[6] = system: NC(=O)C1=CN([C@@H]2O[C@H](COP(=O)(O)OP(=O)(O)OC[C@H]3O[C@@H](n4cnc5c(N)ncnc54)[C@H](O)[C@@H]3O)[C@@H](O)[C@H]2O)C=CC1; assay: purified protein; format: biochemical, Streptomyces sviceus; settings: 10 mM cadaverine, 50 μM FAD, 25°C, Haldane fit

Compound: Cc1cc2nc3c(=O)[nH]c(=O)nc-3n(C[C@H](O)[C@H](O)[C@H](O)COP(=O)(O)OP(=O)(O)OC[C@H]3O[C@@H](n4cnc5c(N)ncnc54)[C@H](O)[C@@H]3O)c2cc1C [FAD]
X-ray crystal structure, 2.86 Å [1]: FAD molecule is bound in an elongated conformation with the fully planar isoalloxazine ring

KI ([2]; 10 mM cadaverine): 1000 ± 400 µM
Compound: NC(=O)C1=CN([C@@H]2O[C@H](COP(=O)(O)OP(=O)(O)OC[C@H]3O[C@@H](n4cnc5c(N)ncnc54)[C@H](O)[C@@H]3O)[C@@H](O)[C@H]2O)C=CC1 [NADH]

KI ([2]; 10 mM cadaverine): 1100 ± 600 µM
Compound: NC(=O)C1=CN([C@@H]2O[C@H](COP(=O)(O)OP(=O)(O)OC[C@H]3O[C@@H](n4cnc5c(N)ncnc54)[C@H](OP(=O)(O)O)[C@@H]3O)[C@@H](O)[C@H]2O)C=CC1 [NADPH]

Compound: NC(=O)c1ccc[n+]([C@@H]2O[C@H](COP(=O)(O)OP(=O)(O)OC[C@H]3O[C@@H](n4cnc5c(N)ncnc54)[C@H](OP(=O)(O)O)[C@@H]3O)[C@@H](O)[C@H]2O)c1 [NADP^+]
X-ray crystal structure, 2.37 Å [3]: the NADP^+ cofactor is held in the active site pocket in an elongated manner

KI ([2]; 0.7 mM NADPH (Fig 3 legend says NADH)): 27000 ± 22000 µM
KI [4]: 2200 ± 1800 µM
Compound: NCCCCCN [cadaverine]

Compound: SsDesB (without N-terminal hexahistidine tag) (Streptomyces sviceus ATCC 29083)
Km [5]: 130 ± 49 µM
kcat [5]: 0.094 ± 0.018 s⁻¹
kcat/Km [5]: 710 ± 260 M⁻¹ s⁻¹

Compound: SsDesB with N-terminal hexahistidine tag (Streptomyces sviceus ATCC 29083)
Km [6]: 120 ± 36 µM
kcat [6]: 0.38 ± 0.09 s⁻¹
kcat/Km [6]: 3300 ± 1300 M⁻¹ s⁻¹
